Results taken from US20160031985A1, “CHARGE-ENGINEERED ANTIBODIES OR COMPOSITIONS OF PENETRATION-ENHANCED TARGETING PROTEINS AND METHODS OF USE” (PERMEON BIOLOGICS, INC., priority 2013, published 2016).

How the values were obtained:
Assay type in all cases: cell-based
AU565 (Her2^+) cells [1] = assay: Internalization of GFP proteins by flow cytometry (Example 4); details: 1 μM protein, 2 hours, serum free media, untreated cells 5,713
[2] = tested on: MDA-MB-468 (Her2^−) cells; assay: as above; details: 1 μM protein, 2 hours, serum free media, untreated cells 4,064
Experimental: MDA-MB-468 cells express an insignificant level of Her2 compared to unstained background and are considered Her2 negative (referred to as Her2), whereas AU565 cells express a high level of Her2 (referred to as Her2^+).
The media were replaced with serum free media containing 1 μM of a protein listed below, and incubated for 2 hours. Cells were washed 3×PBS, trypsinized, fixed with 4% PFA, washed with PBS and then analyzed by flow cytometry with detection of GFP.
Results: Flow cytometry analysis is indicative of the amount of protein internalized into the cells. FIGS. 9A and 9B show the flow cytometry data obtained for different tested samples at various conditions. The median fluorescence values obtained from the flow cytometry peak minus the median fluorescence values of untreated cells (background fluorescence) are shown in FIGS. 10A and 10B. See also Table 7. The first column indicates identifies the GFP-component of the construct used for the particular sample treatment. The second and third columns represents fluorescence in MDA-MB-468 cells following treatment with each of the GFP proteins alone (second column; examples of use of CPMs alone) or with each of the GFP-C6.5 fusion proteins (third column; examples of fusion proteins comprising a target-binding region and a CPM region). The fourth and fifth column fluorescence in AU565 cells following treatment with each of the GFP proteins alone (fourth column; examples of use of CPMs alone) or with each of the GFP-C6.5 fusion proteins (fifth column; examples of fusion proteins comprising a target-binding region and a CPM region).

AU565 (Her2^+) cells [3] = assay: Cellular uptake in mixed cell populations, flow cytometry with Her2 Ab-APC gating (Example 5); details: 2 h, mixed cell population; for Median Fluorescence Values, second set: Her2+ (AU565), untreated 11,162; for Median Fluorescence Values, first set: AU565 cells (Her2+), untreated 6,875
Experimental: (§1) The media were replaced with serum free media containing indicated concentrations of protein listed below and incubated for 2 h. Cells were washed 3×PBS, trypsinized, fixed with 4% PFA, stained with Her2 Ab-APC for 0.5 hour, washed with PBS and then analyzed by flow cytometry with detection of GFP.
(§2) The tested proteins of the first and second sets of experiments were applied to the mixed cell population for two hours.
(§3) The above data were also plotted in FIGS. 13A-13H to show the median fluorescence value minus background fluorescence of untreated cells (background adjusted fluorescence) (Y-axis) as a function of concentration (X-axis) for each of the tested proteins in this Example. Cellular uptake of the proteins was measured by GFP fluorescence. Her2 expression level was measured by using a Her2 antibody conjugated with allophycocyanin (APC). Gating was applied to the flow cytometry data to identify Her2^low versus Her2^high populations. […] The Her2^− profiles (diamond) are indicative of the profile of charged GFP alone. The Her2^− profiles (square) are indicative of the profile of the charged GFP in combination with the target-binding region—C6.5 scFv. The data of sfGFP-C6.5 on the Her2^high cells reflects the profile of the target-binding region (C6.5) by itself.

[4] = tested on: MDA-MB-468 (Her2^−) cells; assay: as above; details: 2 h, mixed cell population; for Median Fluorescence Values, second set: Her2− (MDA-MB-468), untreated 4,776; for Median Fluorescence Values, first set: MDA-MB-468 cells (Her2−), untreated 4,303
Experimental: as §1, §2, §3

AU565 (Her2^+) cells [5] = assay: Time course of cellular uptake in mixed cell populations, flow cytometry (Example 6); details: 0.1 μM, untreated 6,081
Experimental: (§4) The media were replaced with serum free media containing 0.1 μM of protein listed below and incubated for 10 minutes, 30 minutes or 4 hours. Cells were washed 3×PBS, trypsinized, stained with Her2 Antibody-APC for 0.5 hours, washed with PBS and then analyzed by flow cytometry with detection of GFP.

[6] = tested on: MDA-MB-468 (Her2^−) cells; assay: as above; details: Her2− (MDA-MB-468), 0.1 μM, untreated 4,134
Experimental: as §4

SKOV-3 cells (Her2^+) = assay: Cellular uptake of GFP proteins by fluorescence microscopy; details: 1 μM of proteins, 1 hour
Experimental: These images were taken to assess cellular uptake of these GFP-containing proteins by fluorescence microscopy. The images shown are an overlay of phase contrast and GFP fluorescence images.
In addition, SKOV-3 cells (Her2) were treated with 1 μM of proteins for 1 hour, and then images were taken to assess cellular uptake of GFP proteins by fluorescence microscopy (FIG. 11A).

## sfGFP: superfolder GFP with His6 tag, not positively charged; SEQ ID NO: 10 [reference compound]
AU565 (Her2^+) cells [1]
  Median fluorescence (GFP, flow cytometry): 5,896
[2]
  Median fluorescence (GFP, flow cytometry): 5,115
AU565 (Her2^+) cells [3]; 0.1 uM
  Median Fluorescence Values, second set: 10,937
AU565 (Her2^+) cells [3]; 0.3 uM
  Median Fluorescence Values, second set: 12,131
[4]; 0.1 uM
  Median Fluorescence Values, second set: 4,519
[4]; 0.3 uM
  Median Fluorescence Values, second set: 5,245
AU565 (Her2^+) cells [5]; 10 min
  Internalization over time (GFP fluorescence, flow cytometry): 5,952
AU565 (Her2^+) cells [5]; 30 min
  Internalization over time (GFP fluorescence, flow cytometry): 6,024
AU565 (Her2^+) cells [5]; 4 h
  Internalization over time (GFP fluorescence, flow cytometry): 5,924
[6]; 10 min
  Internalization over time (GFP fluorescence, flow cytometry): 3,887
[6]; 30 min
  Internalization over time (GFP fluorescence, flow cytometry): 4,025
[6]; 4 h
  Internalization over time (GFP fluorescence, flow cytometry): 4,067

## +15GFP-C6.5: fusion of +15GFP (CPM) and anti-Her2 scFv C6.5 via (S4G)6 spacer; SEQ ID NO: 14
AU565 (Her2^+) cells [1]
  Median fluorescence (GFP, flow cytometry): 413,838
[2]
  Median fluorescence (GFP, flow cytometry): 313,629
AU565 (Her2^+) cells [3]; 0.03 uM
  Median Fluorescence Values, first set: 37,663
AU565 (Her2^+) cells [3]; 0.1 uM
  Median Fluorescence Values, first set: 74,673
AU565 (Her2^+) cells [3]; 0.3 uM
  Median Fluorescence Values, first set: 128,374
AU565 (Her2^+) cells [3]; 1 uM
  Median Fluorescence Values, first set: 180,065
[4]; 0.03 uM
  Median Fluorescence Values, first set: 13,012
[4]; 0.1 uM
  Median Fluorescence Values, first set: 36,343
[4]; 0.3 uM
  Median Fluorescence Values, first set: 76,116
[4]; 1 uM
  Median Fluorescence Values, first set: 155,734
AU565 (Her2^+) cells [5]; 10 min
  Internalization over time (GFP fluorescence, flow cytometry): 18,606
AU565 (Her2^+) cells [5]; 30 min
  Internalization over time (GFP fluorescence, flow cytometry): 35,981
AU565 (Her2^+) cells [5]; 4 h
  Internalization over time (GFP fluorescence, flow cytometry): 148,261
[6]; 10 min
  Internalization over time (GFP fluorescence, flow cytometry): 10,665
[6]; 30 min
  Internalization over time (GFP fluorescence, flow cytometry): 22,262
[6]; 4 h
  Internalization over time (GFP fluorescence, flow cytometry): 144,923

## sfGFP-C6.5: control fusion of sfGFP and anti-Her2 scFv C6.5, not positively charged; SEQ ID NO: 13 [reference compound]
[2]
  Median fluorescence (GFP, flow cytometry): 5,632
[4]; 0.03 uM
  Median Fluorescence Values, second set: 4,460
[4]; 0.1 uM
  Median Fluorescence Values, second set: 4,824
[4]; 0.3 uM
  Median Fluorescence Values, second set: 4,947
[6]; 10 min
  Internalization over time (GFP fluorescence, flow cytometry): 4,081
[6]; 30 min
  Internalization over time (GFP fluorescence, flow cytometry): 3,986
[6]; 4 h
  Internalization over time (GFP fluorescence, flow cytometry): 4,704

## C6.5-+15GFP: fusion with C6.5 N-terminal to +15GFP; SEQ ID NO: 16
AU565 (Her2^+) cells [1]
  Median fluorescence (GFP, flow cytometry): 2,170,916
[2]
  Median fluorescence (GFP, flow cytometry): 767,627
SKOV-3 cells (Her2^+)
  binding and cellular uptake by fluorescence microscopy: internalized efficiently in the cells
AU565 (Her2^+) cells [3]; 0.03 uM
  Median Fluorescence Values, first set: 75,821
AU565 (Her2^+) cells [3]; 0.1 uM
  Median Fluorescence Values, first set: 162,337
AU565 (Her2^+) cells [3]; 0.3 uM
  Median Fluorescence Values, first set: 305,944
AU565 (Her2^+) cells [3]; 1 uM
  Median Fluorescence Values, first set: 822,351
[4]; 0.03 uM
  Median Fluorescence Values, first set: 13,355
[4]; 0.1 uM
  Median Fluorescence Values, first set: 36,070
[4]; 0.3 uM
  Median Fluorescence Values, first set: 82,571
[4]; 1 uM
  Median Fluorescence Values, first set: 306,260
AU565 (Her2^+) cells [5]; 10 min
  Internalization over time (GFP fluorescence, flow cytometry): 37,044
AU565 (Her2^+) cells [5]; 30 min
  Internalization over time (GFP fluorescence, flow cytometry): 61,007
AU565 (Her2^+) cells [5]; 4 h
  Internalization over time (GFP fluorescence, flow cytometry): 184,844
[6]; 10 min
  Internalization over time (GFP fluorescence, flow cytometry): 13,517
[6]; 30 min
  Internalization over time (GFP fluorescence, flow cytometry): 17,194
[6]; 4 h
  Internalization over time (GFP fluorescence, flow cytometry): 96,599

B1: +2GFP-C6.5: fusion of +2GFP and C6.5; a or b variant not stated (protein)
scFv: QVQLLQSGAELKKPGESLKISCKGSGYSFTSYWIAWVRQMPGKGLEYMGLIYPGDSDTKYSPSFQGQVTISVDKSVSTAYLQWSSLKPSDSAVYFCARHDVGYCSSSNCAKWPEYFQHWGQGTLVTVSSGGGGSGGGGSGGGGSQSVLTQPPSVSAAPGQKVTISCSGSSSNIGNNYVSWYQQLPGTAPKLLIYGHTNRPAGVPDRFSGSKSGTSASLAISGFRSEDEADYYCAAWDDSLSGWVFGGGTKLTVLGGHGHHHHHH
modifications: left off: large carriers; small tags and cut ends
SKOV-3 cells (Her2^+)
  binding and cellular uptake by fluorescence microscopy: bound to SKOV-3 cells through Her2 but did not internalize in the cells
